{
  "source": "ChEMBL document CHEMBL4270556",
  "about": "“Current progress on antioxidants incorporating the pyrazole core” (Eur J Med Chem, 2018)",
  "key": {"[1]": {"assay": "Antioxidant activity assessed as DPPH radical scavenging activity at 10^-3 M relative to control", "format": "functional"}, "[2]": {"assay": "Antioxidant activity assessed as inhibition of lipid peroxidation relative to control", "format": "functional", "details": "dose or concentration not given here"}, "[3]": {"assay": "Antioxidant activity assessed as DPPH radical scavenging activity after 20 mins by UV absorbance method relative to control", "format": "functional"}, "[4]": {"assay": "Antioxidant activity assessed as inhibition of DPPH radical at 100 ug/ml relative to control", "format": "functional"}, "[5]": {"assay": "Antioxidant activity assessed as DPPH radical scavenging activity at 10 ug/ml after 20 mins by UV absorbance method relative to control", "format": "functional"}, "[6]": {"assay": "Antioxidant activity assessed as DPPH radical scavenging activity at 30 to 50 ug/ml relative to control", "format": "functional"}, "[7]": {"assay": "Antioxidant activity assessed as nitric oxide radical scavenging activity at 100 mM after 150 mins in presence of sodium nitroprusside relative to control", "format": "functional"}, "[8]": {"assay": "Antioxidant activity assessed as DPPH radical scavenging activity at 100 mM after 30 mins relative to control", "format": "functional"}, "[9]": {"assay": "Antioxidant activity assessed as ferric ion reducing activity after 20 mins in presence of potassium ferricyanide by FRAP assay relative to control", "format": "functional", "set-up": "scale not given: the % may be the effect or the level left"}, "[10]": {"assay": "Antioxidant activity assessed as DPPH radical scavenging activity at 80 ug/ml relative to control", "format": "functional"}, "[11]": {"assay": "Antioxidant activity assessed as radical scavenging activity at 30 to 50 ug/ml relative to control", "format": "functional"}, "[12]": {"tested_on": "THP-1", "assay": "Antioxidant activity in human THP1 cells assessed as inhibition of macrophage-mediated LDL oxidation after 24 hrs in presence of CuSO4 by TBARS assay", "format": "functional, cell-based", "details": "THP-1, 24 h"}, "[13]": {"assay": "Antioxidant activity assessed as inhibition of H2O2-induced lipid peroxidation", "format": "functional"}},
  "data": [
    {"smiles": "NS(=O)(=O)c1ccc(N2N=C(c3cccs3)CC2c2cnn(-c3ccccc3)c2)cc1", "note": "(centres undefined)", "values": [
      {"measurement": "Activity", "setting": "[1]", "value": 29, "unit": "%"}
    ]},
    {"smiles": "Cc1ccc(N2N=C(c3ccccc3)CC2Cn2cnc3c(Cl)ncnc32)cc1", "note": "(centres undefined)", "values": [
      {"measurement": "inhibition", "setting": "[2]", "value": 58, "unit": "%"},
      {"measurement": "Activity", "setting": "[3]", "value": 20, "unit": "%"}
    ]},
    {"smiles": "CCOC(=O)c1c(C)nn(-c2ccccc2)c1-c1ccc([N+](=O)[O-])cc1", "values": [
      {"measurement": "inhibition", "setting": "[4]", "value": "22.2 to 49.9", "unit": "%"}
    ]},
    {"smiles": "COc1ccc(C2CC(Cn3c4ccccc4c4nc5cc(Cc6ccc7nc(-c8ccccc8)c(-c8ccccc8)nc7c6)ccc5nc43)=NN2C(=O)c2ccccc2)cc1", "note": "(centres undefined)", "values": [
      {"measurement": "Activity", "setting": "[5]", "value": 50.5, "unit": "%"}
    ]},
    {"smiles": "c1ccc(C2=NN(c3ccccc3)C(Cn3cnc4c(N5CCOCC5)ncnc43)C2)cc1", "note": "(centres undefined)", "values": [
      {"measurement": "inhibition", "setting": "[2]", "value": 100, "unit": "%"},
      {"measurement": "Activity", "setting": "[3]", "value": "13 to 24", "unit": "%"}
    ]},
    {"smiles": "COc1ccc(C2C(c3ccc(F)cc3)=NN(c3ccccc3)C2C#N)cc1", "note": "(centres undefined)", "values": [
      {"measurement": "Activity", "setting": "[6]", "value": "< 60", "unit": "%"}
    ]},
    {"smiles": "CCOC(=O)c1c(C)nn(-c2ccc(C)cc2C)c1-c1ccc([N+](=O)[O-])cc1", "values": [
      {"measurement": "inhibition", "setting": "[4]", "value": "22.2 to 49.9", "unit": "%"}
    ]},
    {"smiles": "O=C(/C=C/c1cn(-c2ccccc2)nc1-c1cccc([N+](=O)[O-])c1)c1cccc(NC(=O)c2ccc(F)cc2)c1", "values": [
      {"measurement": "Activity", "setting": "[7]", "value": "32.4 to 77.9", "unit": "%"},
      {"measurement": "Activity", "setting": "[8]", "value": 33.3, "unit": "%"}
    ]},
    {"smiles": "COc1ccc(C2C(c3ccc(C#N)cc3)=NN(c3ccccc3)C2C#N)cc1", "note": "(centres undefined)", "values": [
      {"measurement": "Activity", "setting": "[6]", "value": "< 60", "unit": "%"}
    ]},
    {"smiles": "NS(=O)(=O)c1ccc(N2N=C(c3ccco3)CC2c2cnn(-c3ccccc3)c2)cc1", "note": "(centres undefined)", "values": [
      {"measurement": "Activity", "setting": "[1]", "value": 23, "unit": "%"}
    ]},
    {"smiles": "COc1ccc(C2C(c3ccccc3)=NN(c3ccccc3)C2C#N)cc1", "note": "(centres undefined)", "values": [
      {"measurement": "Activity", "setting": "[6]", "value": "< 45", "unit": "%"}
    ]},
    {"smiles": "COc1ccc(C2C(c3ccc(Br)cc3)=NN(c3ccccc3)C2C#N)cc1", "note": "(centres undefined)", "values": [
      {"measurement": "Activity", "setting": "[6]", "value": "< 60", "unit": "%"}
    ]},
    {"smiles": "COc1ccc(C2C(c3ccco3)=NN(c3ccccc3)C2C#N)cc1", "note": "(centres undefined)", "values": [
      {"measurement": "Activity", "setting": "[6]", "value": "< 45", "unit": "%"}
    ]},
    {"smiles": "O=C(c1ccc(Cl)cc1)N1N=C(Cn2c3ccccc3c3nc4cc(Cc5ccc6nc(-c7ccccc7)c(-c7ccccc7)nc6c5)ccc4nc32)CC1c1ccc(Cl)cc1", "note": "(centres undefined)", "values": [
      {"measurement": "Activity", "setting": "[5]", "value": 58.3, "unit": "%"}
    ]},
    {"smiles": "COc1ccc(C2=NN(c3ccccc3)C(C#N)C2c2ccc(OC)cc2)cc1", "note": "(centres undefined)", "values": [
      {"measurement": "Activity", "setting": "[6]", "value": "< 45", "unit": "%"}
    ]},
    {"smiles": "CCOC(=O)c1c(C)nn(-c2cccc(Cl)c2)c1-c1ccc(Cl)cc1", "values": [
      {"measurement": "inhibition", "setting": "[4]", "value": "22.2 to 49.9", "unit": "%"}
    ]},
    {"smiles": "O=C(Nc1ccccc1)NS(=O)(=O)c1ccc(N2N=C(c3ccco3)CC2c2cnn(-c3ccccc3)c2)cc1", "note": "(centres undefined)", "values": [
      {"measurement": "Activity", "setting": "[1]", "value": 25, "unit": "%"}
    ]},
    {"smiles": "COc1ccc(C2C(c3ccc(Cl)cc3)=NN(c3ccccc3)C2C#N)cc1", "note": "(centres undefined)", "values": [
      {"measurement": "Activity", "setting": "[6]", "value": "< 60", "unit": "%"}
    ]},
    {"smiles": "Cc1ccc(-n2nc(-c3ccccc3)cc2Cn2cnc3c(N4CCCCC4)ncnc32)cc1", "values": [
      {"measurement": "Activity", "setting": "[3]", "value": "62 to 79", "unit": "%"}
    ]},
    {"smiles": "CCOC(=O)c1c(C)nn(-c2cccc(Cl)c2)c1-c1ccc([N+](=O)[O-])cc1", "values": [
      {"measurement": "inhibition", "setting": "[4]", "value": "22.2 to 49.9", "unit": "%"}
    ]},
    {"smiles": "CCOC(=O)c1c(C)nn(-c2cccc(Cl)c2)c1-c1ccc(N(C)C)cc1", "values": [
      {"measurement": "inhibition", "setting": "[4]", "value": "22.2 to 49.9", "unit": "%"}
    ]},
    {"smiles": "COc1ccc(-c2nn(-c3ccccc3)cc2/C=C/C(=O)c2cccc(NC(=O)c3ccc(F)cc3)c2)cc1", "values": [
      {"measurement": "Activity", "setting": "[9]", "value": "44.4 to 55.5", "unit": "%"},
      {"measurement": "Activity", "setting": "[7]", "value": "32.4 to 77.9", "unit": "%"}
    ]},
    {"smiles": "Cc1ccc(-n2nc(-c3ccccc3)cc2Cn2cnc3c(Cl)ncnc32)cc1", "values": [
      {"measurement": "Activity", "setting": "[3]", "value": 60, "unit": "%"}
    ]},
    {"smiles": "CCOC(=O)c1c(C)nn(-c2ccc(C)cc2C)c1-c1ccc(N(C)C)cc1", "values": [
      {"measurement": "inhibition", "setting": "[4]", "value": "22.2 to 49.9", "unit": "%"}
    ]},
    {"smiles": "Cc1ccc(N2N=C(c3ccccc3)CC2Cn2cnc3c(N4CCCCC4)ncnc32)cc1", "note": "(centres undefined)", "values": [
      {"measurement": "Activity", "setting": "[3]", "value": "13 to 24", "unit": "%"}
    ]},
    {"smiles": "CCOC(=O)C1=C(N)Oc2c(c(C)nn2C(=O)c2ccncc2)C1c1c(-c2ccccc2)[nH]c2ccc(Cl)cc12", "note": "(centres undefined)", "values": [
      {"measurement": "Activity", "setting": "[10]", "value": 76.7, "unit": "%"}
    ]},
    {"smiles": "c1ccc(C2=NN(c3ccccc3)C(Cn3cnc4c(N5CCCCC5)ncnc43)C2)cc1", "note": "(centres undefined)", "values": [
      {"measurement": "inhibition", "setting": "[2]", "value": 72, "unit": "%"},
      {"measurement": "Activity", "setting": "[3]", "value": "13 to 24", "unit": "%"}
    ]},
    {"smiles": "O=C(/C=C/c1cn(-c2ccccc2)nc1-c1ccc(Cl)cc1)c1cccc(NC(=O)c2ccc(F)cc2)c1", "values": [
      {"measurement": "Activity", "setting": "[9]", "value": "44.4 to 55.5", "unit": "%"},
      {"measurement": "Activity", "setting": "[7]", "value": "32.4 to 77.9", "unit": "%"}
    ]},
    {"smiles": "CCOC(=O)c1c(C)nn(-c2cccc(Cl)c2)c1-c1cccc(Cl)c1", "values": [
      {"measurement": "inhibition", "setting": "[4]", "value": "22.2 to 49.9", "unit": "%"}
    ]},
    {"smiles": "COc1cc(C2=NN(c3ccccc3)[C@H]3C(=O)N(c4ccccc4)C(=O)[C@@H]23)cc(OC)c1OC", "values": [
      {"measurement": "Activity", "setting": "[11]", "value": "< 55", "unit": "%"}
    ]},
    {"smiles": "CC(C)(Sc1cc(C(C)(C)C)c(O)c(C(C)(C)C)c1)Sc1cc(C(C)(C)C)c(O)c(C(C)(C)C)c1", "note": "[PROBUCOL]", "values": [
      {"measurement": "IC50", "setting": "[12]", "value": 600, "unit": "nM"}
    ]},
    {"smiles": "O=C(/C=C/c1cn(-c2ccccc2)nc1-c1ccc(Br)cc1)c1cccc(NC(=O)c2ccc(F)cc2)c1", "values": [
      {"measurement": "Activity", "setting": "[9]", "value": "44.4 to 55.5", "unit": "%"},
      {"measurement": "Activity", "setting": "[7]", "value": "32.4 to 77.9", "unit": "%"},
      {"measurement": "Activity", "setting": "[8]", "value": "36.8 to 42.3", "unit": "%"}
    ]},
    {"smiles": "CC1=NN(C(=O)c2ccccc2O)C(O)(C(F)(F)F)C1", "note": "(centres undefined)", "values": [
      {"measurement": "IC50", "setting": "[13]", "value": "< 15000", "unit": "nM"}
    ]},
    {"smiles": "c1ccc(C2=NN(c3ccccc3)C(Cn3cnc4c(N5CCCC5)ncnc43)C2)cc1", "note": "(centres undefined)", "values": [
      {"measurement": "inhibition", "setting": "[2]", "value": 73, "unit": "%"},
      {"measurement": "Activity", "setting": "[3]", "value": "13 to 24", "unit": "%"}
    ]},
    {"smiles": "CCOC(=O)c1sc(Nc2ccccc2)c(-c2nc3c(cnn3-c3ccccc3)c(=O)[nH]2)c1N", "values": [
      {"measurement": "Activity", "value": 92, "unit": "%"}
    ]}
  ]
}
